Our source for the Activity and IC50 values is ChEMBL document CHEMBL2331268, “The interaction of imidazole-, imidazolium-, and tetrazolium-containing compounds with DNA” (Bioorg Med Chem Lett, 2013).

Structures are written as SMILES. The source made the active and inactive calls. The rule behind the calls is not given here.

The test system of one experiment is Salmonidae. Put plainly: Displacement of SYBR green I from salmon testes DNA assessed as SYBR green I treated with DNA followed by compound added relative to control.
As to `C[n+]1ccn(CCCCCCCCCCCCCCCCn2cc[n+](C)c2)c1`, the result was Active. On the same count and under the same terms, the same measure for `c1cn(CCCCCCCCCCCCCCCCn2ccnc2)cn1`: “Active”; for `C[n+]1ccn(CCCCCCCCCCCCCCCn2cc[n+](C)c2)c1`: “Active”.

Target in another experiment: not listed separately
Description: Displacement of SYBR green I from salmon testes DNA assessed as compound treated with DNA followed by SYBR green I added relative to control. Also noted: species or system Salmonidae.
As for `C[n+]1ccn(CCCCCCCCCCCCCCCCn2cc[n+](C)c2)c1`, the IC50 (as a rule, the concentration that gives 50% inhibition) amounted to 30 µM. Take `c1cn(CCCCCCCCCCCCCn2ccnc2)cn1`: the IC50 came to 186 µM. Still for that read-out and setting: to `c1cn(-c2ccc(-c3ccc(-n4ccnc4)cc3)cc2)cn1` belongs greater than 2500 µM; to `COc1cc(-c2ccc(-[n+]3nc(-c4ccccc4)nn3-c3ccc([N+](=O)[O-])cc3)c(OC)c2)ccc1-[n+]1nc(-c2ccccc2)nn1-c1ccc([N+](=O)[O-])cc1` [NITROBLUE TETRAZOLIUM CHLORIDE], 360 µM. The same measure, in the same setting: the same measure for `C[n+]1ccn(CCCOc2ccc(OCCCn3cc[n+](C)c3)cc2)c1`: greater than 2500 µM; for `c1cn(CCCCCCCCCCCCCCCCCCCCn2ccnc2)cn1`: greater than 2500 µM; for `c1cn(CCCCCCCCCCCCCCCCn2ccnc2)cn1`: 52 µM.

Regarding `c1cn(CCCCCCCCCCCCCCCn2ccnc2)cn1`, the IC50 was greater than 2500 µM. Take `Brc1cccc(Cn2cc[n+](Cc3cccc(Br)c3)c2)c1`: the IC50 was greater than 2500 µM. The same measure, in the same setting: to `c1cn(-c2ccc(-n3ccnc3)cc2)cn1` belongs greater than 2500 µM; to `Clc1ccccc1Cn1cc[n+](Cc2ccccc2Cl)c1`, greater than 2500 µM. The same measure, in the same setting: to `c1ccc(-c2nn(-c3ccccc3)[n+](-c3cccc4ccccc34)n2)cc1` [TETRAZOLIUM VIOLET] belongs greater than 2500 µM; to `CC[n+]1ccn(CCCCCCCCCCCCn2cc[n+](CC)c2)c1`, greater than 2500 µM. `c1cn(CCCCCCCCCCCCCCn2ccnc2)cn1`: the IC50 is greater than 2500 µM. Regarding `C[n+]1ccn(-c2ccc(-n3cc[n+](C)c3)cc2)c1`, the IC50 was greater than 2500 µM. Same read-out and setting: the same measure for `C[n+]1ccn(CCCCCCCCn2cc[n+](C)c2)c1`: greater than 2500 µM.

Consider `Clc1ccc(Cn2cc[n+](Cc3ccc(Cl)cc3)c2)cc1`, for which the IC50 was greater than 2500 µM. Same read-out and setting: the same measure for `C[n+]1ccn(CCCCCCCCCCCCn2cc[n+](C)c2)c1`: greater than 2500 µM.

For `Brc1ccc(C[n+]2ccn(Cc3ccccc3)c2)cc1`, the 50% inhibitory concentration (IC50) is greater than 2500 µM. For the compound `c1cn(CCCCCCCCCCCCCCCCCCn2ccnc2)cn1`, the IC50 was determined as 58 µM.

Turning to `c1cn(CCCCCCCCCCn2ccnc2)cn1`, the IC50 is greater than 2500 µM.

Consider `C[n+]1ccn(CCCCn2cc[n+](C)c2)c1`, for which the concentration for half-maximal inhibition (IC50) is greater than 2500 µM. As for `C[n+]1ccn(CCCCCCCCCCCCCCCCCCCCn2cc[n+](C)c2)c1`, the IC50 was 8 µM. On the same count and under the same terms, the same measure for `C[n+]1ccn(CCCCCCCCCCn2cc[n+](C)c2)c1`: greater than 2500 µM; for `c1cn(CCCCCCCCn2ccnc2)cn1`: greater than 2500 µM.

`O=[N+]([O-])c1ccc(-n2nc(-c3ccccc3)n[n+]2-c2ccc(I)cc2)cc1` [IODONITROTETRAZOLIUM CHLORIDE]: the 50% inhibitory concentration (IC50) is greater than 2500 µM.

As for `C[n+]1ccn(-c2ccc(-c3ccc(-n4cc[n+](C)c4)cc3)cc2)c1`, the IC50 is 423 µM.

Turning to `COc1cc(-c2ccc(-n3nc(-c4ccc([N+](=O)[O-])cc4)n[n+]3-c3ccc([N+](=O)[O-])cc3)c(OC)c2)ccc1-n1nc(-c2ccc([N+](=O)[O-])cc2)n[n+]1-c1ccc([N+](=O)[O-])cc1`, the IC50 stood at 34 µM. Turning to `c1cn(CCCCn2ccnc2)cn1`, the IC50 is greater than 2500 µM. On the same count and under the same terms, the same measure for `Brc1ccc(Cn2cc[n+](Cc3ccc(Br)cc3)c2)cc1`: greater than 2500 µM; for `c1ccc(C[n+]2ccn(-c3ccc(-c4ccc(-n5cc[n+](Cc6ccccc6)c5)cc4)cc3)c2)cc1`: 370 µM. Regarding `c1ccc(-c2nn(-c3ccccc3)[n+](-c3ccc(-c4ccc(-[n+]5nc(-c6ccccc6)nn5-c5ccccc5)cc4)cc3)n2)cc1` [NEOTETRAZOLIUM CHLORIDE], the half-inhibitory concentration (IC50) was found to be 66 µM. Still for that read-out and setting: to `C[n+]1ccn(CCCCCCCCCCCCCn2cc[n+](C)c2)c1` belongs 25.2 µM; to `O=[N+]([O-])c1ccc(C[n+]2ccn(-c3ccc(-c4ccc(-n5cc[n+](Cc6ccc([N+](=O)[O-])cc6)c5)cc4)cc3)c2)cc1`, 0.4 µM. On the same count and under the same terms, to `C[n+]1ccn(Cc2ccc(-c3ccc(Cn4cc[n+](C)c4)cc3)cc2)c1` belongs greater than 2500 µM; to `c1cn(CCCCCCCCCCCCn2ccnc2)cn1`, greater than 2500 µM. In the case of `C[n+]1ccn(CCCCCCCCCCCCCCCn2cc[n+](C)c2)c1`, the IC50 was greater than 2500 µM. Turning to `COc1cc(-c2ccc(-n3nc(-c4ccccc4)n[n+]3-c3ccccc3)c(OC)c2)ccc1-n1nc(-c2ccccc2)n[n+]1-c1ccccc1` [TETRAZOLIUM BLUE CHLORIDE], the IC50 is greater than 2500 µM. On to `c1cn(Cc2ccc(-c3ccc(Cn4ccnc4)cc3)cc2)cn1`, for which the IC50 was greater than 2500 µM. The same measure, in the same setting: the same measure for `C[n+]1ccn(CCCCCCn2cc[n+](C)c2)c1`: greater than 2500 µM. On the same count and under the same terms, to `CCC[n+]1ccn(CCCCCCCCCCCCn2cc[n+](CCC)c2)c1` belongs 109 µM; to `c1cn(CCCCCCCCCCCn2ccnc2)cn1`, greater than 2500 µM; to `c1ccc2cc(Cn3cc[n+](Cc4ccc5ccccc5c4)c3)ccc2c1`, greater than 2500 µM. `c1cn(CCCCCCn2ccnc2)cn1`: the IC50 was greater than 2500 µM. On the same count and under the same terms, to `c1ccc(-c2nn(-c3ccccc3)[n+](-c3ccccc3)n2)cc1` [TETRAZOLIUM RED] belongs greater than 2500 µM; to `C[n+]1ccn(CCCCCCCCCCCCCCCCCCn2cc[n+](C)c2)c1`, 7.4 µM. Same read-out and setting: to `Ic1ccc(Cn2cc[n+](Cc3ccc(I)cc3)c2)cc1` belongs greater than 2500 µM. Still for that read-out and setting: to `C[n+]1ccn(CCCCCCCCCCCCCCn2cc[n+](C)c2)c1` belongs 1210 µM. On to `C[n+]1ccn(CCCCCCCCCCCn2cc[n+](C)c2)c1`, for which the IC50 is greater than 2500 µM.

Regarding `O=[N+]([O-])c1ccc(Cn2cc[n+](Cc3ccc([N+](=O)[O-])cc3)c2)cc1`, the 50% inhibitory concentration (IC50) was found to be 0.3 µM.

The next experiment deals with Salmonidae. Put plainly: Displacement of SYBR green I from salmon testes DNA assessed as compound treated with SYBR green I followed by DNA added relative to control.
For the compound `C[n+]1ccn(CCCCCCCCCCCCCCCCn2cc[n+](C)c2)c1`, the result was Active.

With `c1cn(CCCCCCCCCCCCCCCCCCn2ccnc2)cn1`, the outcome was Active.
